For assay [1], the system named is feather pulp. In words: Local tissue response to LPS or PHA injected into feathers and wing webs. It is filed as in vivo, chicken. The settings on record: for composition of the infiltrate / MHC class II expression: 6 hours post-injection; for MHC class II expression: immunohistochemistry; for leukocyte infiltration: in vivo.
For assay [2], the system named is feather pulp. In words: Local tissue response to injection of IFN-γ into growing feathers. The class given is in vivo, chicken. The settings on record: for mean score of extent of mononuclear infiltration: score 1=no infiltration.

These results are taken from US8216551B2, “In vivo system to monitor tissue responses in birds” (The Board of Trustees of the University of Arkansas, priority 2008, dated 2012).

For the molecule lipopolysaccharide [LPS], in the assay with feather pulp [1], the “composition of the infiltrate” value was “primarily of heterophils”, the “MHC class II expression” value is “noticeable increase” and the leukocyte infiltration entry is listed as “extensive leukocyte infiltration”.

With phytohaemagglutinin [PHA], in the assay with feather pulp [1], the “composition of the infiltrate” value is “heterophils and mononuclear cells”; the “MHC class II expression” value is on record as “substantially increased”; the leukocyte infiltration entry was “extensive leukocyte infiltration”.

B1: IFN-γ: recombinant chicken IFN-γ (protein, UniProt P49708 20-164, looked up)
Interferon gamma: HTASSLNLVQLQDDIDKLKADFNSSHSDVADGGPIIVEKLKNWTERNEKRIILSQIVSMYLEMLENTDKSKPHIKHISEELYTLKNNLPDGVKKVKDIMDLAKLPMNDLRIQRKAANELFSILQKLVDPPSFKRKRSQSQRRCNC
For the molecule B1, the “mean score of extent of mononuclear infiltration” value with feather pulp [2] (6 h post-injection, 5=extensive infiltration throughout the entire pulp) came out at 1.6±0.1; in the assay on feather pulp [2] (1 day post-injection, 5=extensive) it was 4.0±0.5; in the assay with feather pulp [2] (2 days post-injection, 5=extensive) it was 3.2±0.6; in the assay with feather pulp [2] (3 days post-injection, 5=extensive) it was 3.0±0.9. For the same molecule, the “histological analysis, cell infiltration into the feather pulp” value with feather pulp [2] (by 6 h, preliminary) is recorded as “mononuclear cell infiltration into the feather pulp, but no granulocytes”.
